Laboratory results published in patent publication US6685915B2, “Extended-linear polymeric contrast agents, and synthesizing methods, for medical imaging” (General Electric Company, priority 1999, dated 2004).

Experiment: blood circulation time
Assay type: in vivo
Description: Furthermore, the blood circulation times can be adjusted by varying the polymer length.

In the case of `O=C([O-])CN(CCN(CC(=O)[O-])CC(=O)O)CCN(CC(=O)[O-])CC(=O)O.[Gd+3]` [Gd-DTPA, gadolinuim- diethylentriaminepentaaceticacid], the circulation time constant is reported as 15 min.
